According to patent publication EP4596537A1, “NOVEL FLUORENE DERIVATIVE COMPOUND AND USE THEREOF” (JD Bioscience Inc., priority 2022, dated 2024):

tested on: PDHE1α S293; assay: In vitro PDH S293 phosphorylation inhibition (Western blot) in HEK293 cells; format: cell-based, human; details: 5 hours, at 1 µM
Protocol: HEK293 cells, which are human embryonic kidney cells, were seeded at a density of 2 × 10^6 in a 60 mm dish, and cultured for 24 hours. After replacing the medium with a medium comprising 0.5% FBS, the compounds prepared according to Examples 1 to 54 were treated at various concentrations. 5 hours later, the cells were scraped off and collected into a 15 mL conical tube and centrifuged at 1500 rpm for 10 minutes. The supernatant was discarded, the resultant was washed with 1× PBS, and transferred to a 1.5 mL e-tube, followed by centrifugation at 10,000 rpm for 5 minutes. The supernatant was discarded again, a lysis buffer was added, and the cells were lysed on ice for 30 minutes. The cells were vortexed every 10 minutes to completely lyse, and centrifuged again at 10,000 rpm for 15 minutes at 4°C, and the supernatant was collected. The protein in the supernatant was quantified using BCA technique, and the sample buffer was added to 20 µg of protein and allowed to react at 70°C for 5 minutes. The expression of PDHE1α S232, S293, S300, and total PDHE1α proteins was detected by Western blot, and the resulting PDH S293 phosphorylation inhibition is shown in Table 6. […]

**Q.** Which “PDH S293 phosphorylation inhibition” value does the source give for “N'-(3-chloro-5-(trifluoromethyl)pyridin-2-yl)-2-(4-(2-fluoro-9-hydroxy-9-(trifluoromethyl)-9H-fluoren-4-yl)-1H-pyrazol-1-yl)propanehydrazide [Example 32]” here?
**A.** The value was “++ (50% or more of PHDE1α S293 expression inhibition rate at 1 µM)”.

same assay, conditions: Homo sapiens, 5 hours

**Q.** How did the inhibition at 1 µM turn out when `COc1cc(-c2cnn(C(C)C(=O)NNc3ccc(C(=O)OC(C)(C)C)cn3)c2)c2c(c1)C(O)(C(F)(F)F)c1ccccc1-2` (stereo not shown) [Example 15, tert-butyl 6-(2-(2-(4-(9-hydroxy-2-methoxy-9-(trifluoromethyl)-9H-fluoren-4-yl)-1H-pyrazol-1-yl)propanoyl)hydrazinyl)nicotinate] was run?
**A.** The inhibition at 1 µM was at least 50%.

**Q.** For `COc1cc(-c2cnn(C(C)C(=O)NNc3ccccn3)c2)c2c(c1)C(O)(C(F)(F)F)c1ccccc1-2` (stereo not shown) [Example 17, 2-(4-(9-hydroxy-2-methoxy-9-(trifluoromethyl)-9H-fluoren-4-yl)-1H-pyrazol-1-yl)-N'-(pyridin-2-yl)propanehydrazide], which inhibition at 1 µM is on record?
**A.** The inhibition at 1 µM was at least 50%.

**Q.** With `CC(C(=O)NNc1ncccn1)n1cc(-c2cc(F)cc3c2-c2ccccc2C3(O)C(F)(F)F)cn1` (stereo not shown) [Example 28, 2-(4-(2-fluoro-9-hydroxy-9-(trifluoromethyl)-9H-fluoren-4-yl)-1H-pyrazol-1-yl)-N'-(pyrimidin-2-yl)propanehydrazide] as the compound, how does the inhibition at 1 µM read?
**A.** The inhibition at 1 µM was at least 50%.

**Q.** For `COc1cc(-c2cnn(C(C)C(=O)NNc3ccccc3Cl)c2)c2c(c1)C(O)(C(F)(F)F)c1ccccc1-2` (stereo not shown) [Example 12, N'-(2-chlorophenyl)-2-(4-(9-hydroxy-2-methoxy-9-(trifluoromethyl)-9H-fluoren-4-yl)-1H-pyrazol-1-yl)propanehydrazide], which inhibition at 1 µM is on record?
**A.** The inhibition at 1 µM was at least 50%.

**Q.** How did the inhibition at 1 µM turn out when `COc1cc(-c2cnn(C(C)C(=O)NN3CCCCC3)c2)c2c(c1)C(O)(C(F)(F)F)c1ccccc1-2` (stereo not shown) [Example 52, 2-(4-(9-hydroxy-2-methoxy-9-(trifluoromethyl)-9H-fluoren-4-yl)-1H-pyrazol-1-yl)-N-(piperidin-1-yl)propanamide] was run?
**A.** The inhibition at 1 µM was at least 50%.

**Q.** How did the inhibition at 1 µM turn out when `COc1cc(-c2cnn(C(C)C(=O)NNc3ccc(F)cc3)c2)c2c(c1)C(O)(C(F)(F)F)c1ccccc1-2` (stereo not shown) [Example 2, N'-(4-fluorophenyl)-2-(4-(9-hydroxy-2-methoxy-9-(trifluoromethyl)-9H-fluoren-4-yl)-1H-pyrazol-1-yl)propanehydrazide] was run?
**A.** The inhibition at 1 µM was at least 50%.

**Q.** For `COc1cc(-c2cnn(C(C)C(=O)NNc3ncccn3)c2)c2c(c1)C(O)(C(F)(F)F)c1ccccc1-2` (stereo not shown) [Example 29, 2-(4-(9-hydroxy-2-methoxy-9-(trifluoromethyl)-9H-fluoren-4-yl)-1H-pyrazol-1-yl)-N'-(pyrimidin-2-yl)propanehydrazide], which inhibition at 1 µM is on record?
**A.** The inhibition at 1 µM was at least 50%.

**Q.** For `CC(C(=O)NNc1ccc(C(=O)O)cn1)n1cc(-c2cc(F)cc3c2-c2ccccc2C3(O)C(F)(F)F)cn1` (stereo not shown) [Example 14, 6-(2-(2-(4-(2-fluoro-9-hydroxy-9-(trifluoromethyl)-9H-fluoren-4-yl)-1H-pyrazol-1-yl)propanoyl)hydrazinyl)nicotinic acid], which inhibition at 1 µM is on record?
**A.** The inhibition at 1 µM was at least 50%.

**Q.** With `COc1cc(-c2cnn(C(C)C(=O)NNc3ccc(C(F)(F)F)cn3)c2)c2c(c1)C(O)(C(F)(F)F)c1ccccc1-2` (stereo not shown) [Example 27, 2-(4-(9-hydroxy-2-methoxy-9-(trifluoromethyl)-9H-fluoren-4-yl)-1H-pyrazol-1-yl)-N'-(5-(trifluoromethyl)pyridin-2-yl)propanehydrazide] as the compound, how does the inhibition at 1 µM read?
**A.** Its inhibition at 1 µM is at least 50%.

**Q.** How did the inhibition at 1 µM turn out when `CC(C(=O)NNc1ccccc1)n1cc(-c2cc(F)cc3c2-c2ccccc2C3(O)C(F)(F)F)cn1` (stereo not shown) [Example 4, 2-(4-(2-fluoro-9-hydroxy-9-(trifluoromethyl)-9H-fluoren-4-yl)-1H-pyrazol-1-yl)-N'-phenylpropanehydrazide] was run?
**A.** The inhibition at 1 µM was at least 80%.

**Q.** For `CC(C(=O)NNc1ccccn1)n1cc(-c2cc(F)cc3c2-c2ccccc2C3(O)C(F)(F)F)cn1` (stereo not shown) [Example 8, 2-(4-(2-fluoro-9-hydroxy-9-(trifluoromethyl)-9H-fluoren-4-yl)-1H-pyrazol-1-yl)-N'-(pyridin-2-yl)propanehydrazide], which inhibition at 1 µM is on record?
**A.** Its inhibition at 1 µM is at least 80%.

**Q.** For `C[C@H](C(=O)NNc1ccc(F)cc1)n1cc(-c2cc(F)cc3c2-c2ccccc2[C@@]3(O)C(F)(F)F)cn1` [Example 51, (R)-2-(4-((S)-2-fluoro-9-hydroxy-9-(trifluoromethyl)-9H-fluoren-4-yl)-1H-pyrazol-1-yl)-N'-(4-fluorophenyl)propanehydrazide], which inhibition at 1 µM is on record?
**A.** The inhibition at 1 µM was at least 50%.

**Q.** With `CC(C(=O)NNc1cnc2ccccc2n1)n1cc(-c2cc(F)cc3c2-c2ccccc2C3(O)C(F)(F)F)cn1` (stereo not shown) [Example 37, 2-(4-(2-fluoro-9-hydroxy-9-(trifluoromethyl)-9H-fluoren-4-yl)-1H-pyrazol-1-yl)-N'-(quinoxalin-2-yl)propanehydrazide] as the compound, how does the inhibition at 1 µM read?
**A.** The inhibition at 1 µM was at least 50%.

**Q.** `CC(C(=O)NNc1ccc2nccn2n1)n1cc(-c2cc(F)cc3c2-c2ccccc2C3(O)C(F)(F)F)cn1` (stereo not shown) [Example 41, 2-(4-(2-fluoro-9-hydroxy-9-(trifluoromethyl)-9H-fluoren-4-yl)-1H-pyrazol-1-yl)-N'-(imidazo[1,2-b]pyridazin-6-yl)propanehydrazide] was tested. Which inhibition at 1 µM did it give?
**A.** The inhibition at 1 µM was at least 50%.

**Q.** How did the inhibition at 1 µM turn out when `CC(C(=O)NNc1ccnc2ccccc12)n1cc(-c2cc(F)cc3c2-c2ccccc2C3(O)C(F)(F)F)cn1` (stereo not shown) [Example 36, 2-(4-(2-fluoro-9-hydroxy-9-(trifluoromethyl)-9H-fluoren-4-yl)-1H-pyrazol-1-yl)-N'-(quinolin-4-yl)propanehydrazide] was run?
**A.** The inhibition at 1 µM was at least 50%.

**Q.** With `CC(C(=O)NNc1cccnc1)n1cc(-c2cc(F)cc3c2-c2ccccc2C3(O)C(F)(F)F)cn1` (stereo not shown) [Example 30, 2-(4-(2-fluoro-9-hydroxy-9-(trifluoromethyl)-9H-fluoren-4-yl)-1H-pyrazol-1-yl)-N'-(pyridin-3-yl)propanehydrazide] as the compound, how does the inhibition at 1 µM read?
**A.** The inhibition at 1 µM was at least 50%.

**Q.** `CC(C(=O)NNc1ccncc1)n1cc(-c2cc(F)cc3c2-c2ccccc2C3(O)C(F)(F)F)cn1` (stereo not shown) [Example 34, 2-(4-(2-fluoro-9-hydroxy-9-(trifluoromethyl)-9H-fluoren-4-yl)-1H-pyrazol-1-yl)-N'-(pyridin-4-yl)propanehydrazide] was tested. Which inhibition at 1 µM did it give?
**A.** Its inhibition at 1 µM is at least 50%.

**Q.** For `CCC(C(=O)NNc1ccc(F)cc1)n1cc(-c2cc(F)cc3c2-c2ccccc2C3(O)C(F)(F)F)cn1` (stereo not shown) [Example 43, 2-(4-(2-fluoro-9-hydroxy-9-(trifluoromethyl)-9H-fluoren-4-yl)-1H-pyrazol-1-yl)-N'-(4-fluorophenyl)butanehydrazide], which inhibition at 1 µM is on record?
**A.** Its inhibition at 1 µM is at least 50%.

**Q.** Which inhibition at 1 µM does the source give for `C[C@@H](C(=O)NNc1ccc(F)cc1)n1cc(-c2cc(F)cc3c2-c2ccccc2[C@@]3(O)C(F)(F)F)cn1` [Example 48, (S)-2-(4-((S)-2-fluoro-9-hydroxy-9-(trifluoromethyl)-9H-fluoren-4-yl)-1H-pyrazol-1-yl)-N'-(4-fluorophenyl)propanehydrazide] here?
**A.** The inhibition at 1 µM was at least 50%.

**Q.** Which inhibition at 1 µM does the source give for `CC(C(=O)NNc1ccc(S(C)(=O)=O)cc1F)n1cc(-c2cc(F)cc3c2-c2ccccc2C3(O)C(F)(F)F)cn1` (stereo not shown) [Example 3, N'-(2-fluoro-4-(methylsulfonyl)phenyl)-2-(4-(2-fluoro-9-hydroxy-9-(trifluoromethyl)-9H-fluoren-4-yl)-1H-pyrazol-1-yl)propanehydrazide] here?
**A.** The inhibition at 1 µM was at least 50%.

**Q.** `CC(C(=O)NNc1ccc(S(C)(=O)=O)cc1)n1cc(-c2cc(F)cc3c2-c2ccccc2C3(O)C(F)(F)F)cn1` (stereo not shown) [Example 22, 2-(4-(2-fluoro-9-hydroxy-9-(trifluoromethyl)-9H-fluoren-4-yl)-1H-pyrazol-1-yl)-N'-(4-(methylsulfonyl)phenyl)propanehydrazide] was tested. Which inhibition at 1 µM did it give?
**A.** Its inhibition at 1 µM is at least 50%.

**Q.** For `C[C@@H](C(=O)NNc1ccc(F)cc1)n1cc(-c2cc(F)cc3c2-c2ccccc2[C@]3(O)C(F)(F)F)cn1` [Example 50, (S)-2-(4-((R)-2-fluoro-9-hydroxy-9-(trifluoromethyl)-9H-fluoren-4-yl)-1H-pyrazol-1-yl)-N'-(4-fluorophenyl)propanehydrazide], which inhibition at 1 µM is on record?
**A.** The inhibition at 1 µM was at least 50%.

**Q.** For `COc1cc(-c2cnn(C(C)C(=O)NNc3cnccn3)c2)c2c(c1)C(O)(C(F)(F)F)c1ccccc1-2` (stereo not shown) [Example 25, 2-(4-(9-hydroxy-2-methoxy-9-(trifluoromethyl)-9H-fluoren-4-yl)-1H-pyrazol-1-yl)-N'-(pyrazin-2-yl)propanehydrazide], which inhibition at 1 µM is on record?
**A.** Its inhibition at 1 µM is at least 50%.

**Q.** With `COc1cc(-c2cnn(C(C)C(=O)NNc3ccc(Cl)cc3)c2)c2c(c1)C(O)(C(F)(F)F)c1ccccc1-2` (stereo not shown) [Example 10, N'-(4-chlorophenyl)-2-(4-(9-hydroxy-2-methoxy-9-(trifluoromethyl)-9H-fluoren-4-yl)-1H-pyrazol-1-yl)propanehydrazide] as the compound, how does the inhibition at 1 µM read?
**A.** Its inhibition at 1 µM is at least 50%.

**Q.** How did the inhibition at 1 µM turn out when `CC(C)C(C(=O)NNc1ccc(F)cc1)n1cc(-c2cc(F)cc3c2-c2ccccc2C3(O)C(F)(F)F)cn1` (stereo not shown) [Example 44, 2-(4-(2-fluoro-9-hydroxy-9-(trifluoromethyl)-9H-fluoren-4-yl)-1H-pyrazol-1-yl)-N'-(4-fluorophenyl)-3-methylbutanehydrazide] was run?
**A.** Its inhibition at 1 µM is at least 50%.

**Q.** With `CC(C)CC(C(=O)NNc1ccc(F)cc1)n1cc(-c2cc(F)cc3c2-c2ccccc2C3(O)C(F)(F)F)cn1` (stereo not shown) [Example 45, 2-(4-(2-fluoro-9-hydroxy-9-(trifluoromethyl)-9H-fluoren-4-yl)-1H-pyrazol-1-yl)-N'-(4-fluorophenyl)-4-methylpentanehydrazide] as the compound, how does the inhibition at 1 µM read?
**A.** The inhibition at 1 µM was at least 50%.

**Q.** `O=C(Cn1cc(-c2cc(F)cc3c2-c2ccccc2C3(O)C(F)(F)F)cn1)NNc1ccccn1` (stereo not shown) [Example 18, 2-(4-(2-fluoro-9-hydroxy-9-(trifluoromethyl)-9H-fluoren-4-yl)-1H-pyrazol-1-yl)-N'-(pyridin-2-yl)acetohydrazide] was tested. Which inhibition at 1 µM did it give?
**A.** Its inhibition at 1 µM is at least 80%.
